The values that follow come from US8440701B2, “Trisubstituted 1,2,4 triazoles” (Janssen Pharmaceutica NV, priority 2007, dated 2013).

The structures appear in SMILES notation.

Series [1] deals with T1, hα7-wt nAChR (Homo sapiens, UniProt P36544).
T1 construct: expressed in transfected cells; host or cells: GH4C1 cells (recombinant, stably over-expressing)
Put plainly: Ca2+ flux imaging (FDSS), potentiation of choline response. The series is classed as cell-based. As to conditions: for EC50: hα7-wt nAChR-expressing GH4C1 cells, potentiation of 100 μM choline, compounds 0.01 μM to 30 μM; for Emax: GH4-C1, maximal effect, efficacy of 100 μM choline defined as 100% in the absence of a PAM, GH4C1 cells. Here is the method:
Ca^2+ Flux Imaging (FDSS)
• Hanks buffered saline solution (HBSS, Invitrogen, Belgium), supplemented with 10 mM HEPES (Invitrogen, Belgium), CaCl2 to a final concentration of 5 mM, 0.1% Bovine serum albumin (Sigma-Aldrich NV, Belgium). b) Calcium-Sensitive Dye—Fluo-4AM • Fluo-4AM (Molecular Probes, USA) was dissolved in DMSO containing 10% Pluronic acid (Molecular Probes, USA) to give a stock solution which was diluted in assay buffer supplemented with 5 mM probenicid (Sigma, Aldrich NV, Belgium) to give a final concentration of 2 μM. c) 384-Well Plates • Black 384 well plate black/clear plates, PDL pre-coated (Corning, Incorporated, USA) d) Calcium Flux Measurement • A Functional drug screening system (FDSS, Hamamatsu) was used to measure intracellular free-calcium flux signals. Method
Monolayers of hα7-wt nAChR-expressing GH4C1 cells were grown in multi-well plates, in particular black-sided, transparent bottomed 384 well plates coated with poly-D-lysine for 24 hours prior to loading with a fluorescent calcium indicator, in a particular embodiment loading with fluo-4AM for up to 120 minutes.
PAM activity was detected in real time by applying the compound to be tested to the loaded cells along with a α7 nicotinic receptor agonist during constant monitoring of the cellular calcium mobilization by fluorescence in a FDSS. Compounds giving peak fluorescent responses greater than the response due to agonist alone, were considered to be α7 nAChR PAM's. In a particular embodiment, the α7 nicotinic receptor agonist was choline, a more particular embodiment choline applied at a sub-maximal concentration of 100 μM. In a further setting of the present invention the compounds to be tested were applied prior to the α7 nicotinic receptor agonist, in a particular embodiment up to 10 minutes prior to the agonist.
A control response to choline was calculated on each plate from the difference in peak in fluorescence in wells receiving either choline or assay buffer alone. Compounds of the present invention were tested at a concentration range from 0.01 μM to 30 μM. Compounds were considered to have an interesting activity when they potentiated the choline signal at least with 200% when tested at a concentration of 30 μM (the efficacy of 100 μM choline was defined as 100% in the absence of a PAM).
EC50 values (potency), maximal effect (% efficacy), and Hill slopes were estimated by fitting the sigmoidal equation to the data using GraphPad Prism (GraphPad Software, Inc., San Diego, Calif.). An EC50 (or pEC50) was determined as a concentration relating to half the maximal effect, when a clear sigmoidal curve with top plateau was obtained.
(In general: A change in cytosolic calcium serves as a functional read-out for many receptors and channels.)

Series [2] deals with T1, hα7-wt nAChR. Description: Whole-cell voltage-clamp recording, PAM type classification. The series is classed as cell-based. On the set-up: key: Type 1 compounds enhance the effect size of the current elicited by 1 mM choline but minimally alter the kinetics of the receptor.; Type 2 compounds enhance the effect size of the current elicited by 1 mM choline while reducing the rate and/or the extent of desensitization.; Type 3 compounds enhance the effect size of the current elicited by 1 mM choline. When tested at higher concentrations up to 10 μM they completely inhibit desensitization, in particular a 1 mM choline application of 250 milliseconds.; Type 4 compounds allow for an initial desensitization of the receptor followed by a re-opening of the receptor during agonist application. As to conditions: qualitative kinetic properties; 1 mM choline; hα7-wt nAChR-expressing GH4C1 cells. Here is the method: The compounds of the present invention are classified as type 1-4, based on qualitative kinetic properties, as determined by whole-cell voltage-clamp recordings. This classification is based on the effect of an α7 PAM compound, as described hereinbefore, on the signal elicited by an agonist application. In particular, said agonist is choline at a concentration of 1 mM. In a preferred experimental setting, said α7 PAM compound and choline are simultaneously applied to the cell, as described hereinafter. Desensitization is defined as the closure of the receptor upon activation during the application of the agonist in whole-cell voltage-clamp electrophysiology measurements seen as the reduction of the […] current after initial activation by the agonist.
The definition of the PAM types 1-4 is described hereinafter: • Type 1 compounds enhance the effect size of the current elicited by 1 mM choline but minimally alter the kinetics of the receptor. In particular, the rate and the extent of desensitization, elicited by the agonist, is not affected. The compound-modulated response to 1 mM choline, therefore, is a close to linear scaling of the 1 mM choline response in absence of the α7 PAM compound. • Type 2 compounds enhance the effect size of the current elicited by 1 mM choline while reducing the rate and/or the extent of desensitization. • Type 3 compounds enhance the effect size of the current elicited by 1 mM choline. […] At low-potency concentrations of the α7 PAM compound, the agonist-induced activation, which is followed by desensitization, can still be separated from the compound-induced re-opening as an initial inward current-maximum. At higher potency concentrations of the α7 PAM compound, the re-opening occurs faster than the closure due to desensitization so that the initial current-maximum disappears.
The compounds of the present invention also have a potentiating effect on the response to choline when measured by whole-cell voltage-clamp electrophysiology in GH4C1 cells stably over-expressing the human wild-type α7 receptor, as described hereinafter.
Whole-Cell Voltage-Clamp Recording
Whole-cell voltage-clamp recording from mammalian cells has provided a powerful means of assessing the function of membrane proteins thought to be subunits of ligand-gated ion channels. Activation of such proteins by endogenous or exogenous ligands causes opening of a pore associated with the receptor through which ions flow down their electrochemical gradient. In the case of the hα7-wt nAChR-expressing GH4C1 recombinant cell line the preferential permeability to calcium of this receptor means that calcium flows into the cell upon activation by ACh, choline and other nicotinic ligands giving rise to a calcium current. Since this receptor rapidly desensitizes in the presence of an agonist it is important that an application system is used which is capable of very rapid switching of solutions (<100 ms) to prevent partial or full desensitisation of receptor responses coincident with the time of agonist application. Consequently, a second convenient technique to assess the enhancement of nicotinic efficacy is whole-cell voltage-clamp recording from hα7-wt nAChR-expressing GH4C1 cells coupled with a rapid-application system.
• The external recording solution consisted of 152 mM NaCl, 5 mM KCl, 1 mM MgCl2, 1 mM Calcium, 10 mM HEPES; pH 7.3. The internal recording solution consisted of 140 mM CsCl, 10 mM HEPES, 10 mM EGTA, 1 mM MgCl2, pH 7.3. • b) Patch-clamp recording was carried out using a Patch-clamp amplifier (Multiclamp 700A, Axon Instruments, CA, USA). The membrane potential of hα7-wt nAChR-expressing GH4C1 cells was voltage-clamped in the whole cell configuration (Hamill et al, 1981) with a borosilicate glass electrode of 1.5-3 MΩ tip resistance when filled with the internal recording solution. […]

T1 sequence (P36544 23-502): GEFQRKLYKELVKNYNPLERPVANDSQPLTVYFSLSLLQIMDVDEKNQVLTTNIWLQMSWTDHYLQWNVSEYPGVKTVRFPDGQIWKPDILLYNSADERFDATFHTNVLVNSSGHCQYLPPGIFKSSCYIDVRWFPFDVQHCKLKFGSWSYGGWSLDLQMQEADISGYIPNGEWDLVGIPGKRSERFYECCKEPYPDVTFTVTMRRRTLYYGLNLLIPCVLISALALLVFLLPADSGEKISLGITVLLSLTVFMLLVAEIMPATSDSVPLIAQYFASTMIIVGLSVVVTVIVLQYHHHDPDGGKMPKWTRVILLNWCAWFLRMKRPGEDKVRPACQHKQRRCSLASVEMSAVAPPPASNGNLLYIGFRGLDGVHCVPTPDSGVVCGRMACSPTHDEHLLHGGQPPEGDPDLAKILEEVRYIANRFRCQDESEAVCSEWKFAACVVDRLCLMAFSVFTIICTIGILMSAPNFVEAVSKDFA

For orientation: EC50 means the concentration needed to bring the measured effect to its halfway point. What is called melting point is the temperature, or range, at which the solid turns liquid. `CCCC(O)Cn1nc(Nc2ccc(F)c(F)c2)nc1-c1ccnc(C)c1` (single isomer, unassigned) [Compound E16]: the melting point was 134.82 °C. Further, on hα7-wt nAChR [1], the EC50 is 417 nM. In addition, on hα7-wt nAChR [2], the PAM_type was found to be 2.

In turn, `CCC(O)Cn1nc(Nc2cc(OC)cc(C(F)(F)F)c2)nc1-c1ccnc(C)c1` (single isomer, unassigned) [Compound E20] returned a melting point of 120.54 °C. Further, on hα7-wt nAChR [1], the EC50 is 214 nM. Also, on hα7-wt nAChR [2], the PAM_type came to 4.

`CC[C@H](O)Cn1nc(Nc2ccc(F)c(F)c2)nc1-c1cc(C)nc(C)c1` [Compound E1, (S)-1-[3-(3,4-Difluoro-phenylamino)-5-(2,6-dimethyl-pyridin-4-yl)-[1,2,4]triazol-1-yl]-butan-2-ol] displayed a melting point of 166.04 °C. The EC50 on hα7-wt nAChR [1] is 589 nM. Also, the PAM_type at hα7-wt nAChR [2] amounted to 2.

As for `CCC(O)Cn1nc(Nc2cccc(Cl)c2)nc1-c1ccnc(C)c1` (stereo not drawn) [Compound E17], the melting point stood at 144.31 °C. Also, the concentration for a half-maximal effect (EC50) at hα7-wt nAChR [1] was 1200 nM. Moreover, the PAM_type at hα7-wt nAChR [2] is recorded as 2.

Regarding `CCC(O)Cn1nc(Nc2ccc(F)c(F)c2)nc1-c1ccnc(C)c1` (single isomer, unassigned) [Compound E6], the melting point is 142.72 °C. Besides, the EC50 at hα7-wt nAChR [1] was 955 nM. Further, the PAM_type at hα7-wt nAChR [2] amounted to 2.

The term Emax denotes the size of the effect at its maximum, as opposed to the concentration needed. For `CCC(O)Cn1nc(Nc2ccc(F)c(F)c2)nc1-c1ccnc(C)c1` (single isomer, unassigned) [Compound E26], the melting point amounted to 145.29 °C. Moreover, on hα7-wt nAChR [1], the maximal response (Emax) came to 580% and the 50% effective concentration (EC50) is 776 nM. The PAM_type at hα7-wt nAChR [2] was determined as 1.

`CCCC(O)Cn1nc(Nc2cccc(Cl)c2)nc1-c1cc(C)nc(C)c1` (single isomer, unassigned) [Compound E23] gave a melting point of 127.44 °C. Further, at hα7-wt nAChR [1], the EC50 is 891 nM. Further, the PAM_type at hα7-wt nAChR [2] turned out to be 1.

In turn, `CCC(O)Cn1nc(Nc2ccc(F)c(F)c2)nc1-c1ccnc(NCCOC)c1` (stereo not drawn) [Compound E9] returned a melting point of 137.06 °C. Besides, at hα7-wt nAChR [1], the maximal effect (Emax) was determined as 1000% and the concentration for a half-maximal effect (EC50) was 933 nM. In addition, the PAM_type on hα7-wt nAChR [2] is 2.

In turn, `CCCC(O)Cn1nc(Nc2ccc(F)c(F)c2)nc1-c1cc(C)nc(C)c1` (single isomer, unassigned) [Compound E14] came in with a melting point of 139.48 °C. Besides, the concentration giving a half-maximal response (EC50) at hα7-wt nAChR [1] is 316 nM. On hα7-wt nAChR [2], the PAM_type is reported as 2.

In turn, `CCNc1cc(-c2nc(Nc3ccc(F)c(F)c3)nn2CC(O)CC)ccn1` (stereo not drawn) [Compound E25] gave a melting point of 156.18 °C. Further, on hα7-wt nAChR [1], the EC50 is 692 nM. The PAM_type at hα7-wt nAChR [2] is recorded as 1.

`CCNc1cc(-c2nc(Nc3cccc(Cl)c3)nn2C[C@H](O)CC)ccn1` [Compound E29, (R)-1-[3-(3-chloro-phenylamino)-5-(2-ethylamino-pyridin-4-yl)-[1,2,4]triazol-1-yl]-butan-2-ol] returned a melting point of 158.66 °C. Moreover, the EC50 at hα7-wt nAChR [1] was 1020 nM. The PAM_type on hα7-wt nAChR [2] turned out to be 1.

Turning to `CCCC(O)Cn1nc(Nc2ccc(F)c(F)c2)nc1-c1cc(C)nc(C)c1` (single isomer, unassigned) [Compound E13], the melting point was 141.14 °C. Moreover, at hα7-wt nAChR [1], the Emax was determined as 490% and the EC50 is 245 nM. Further, the PAM_type on hα7-wt nAChR [2] is 1.

As to `CC[C@H](O)Cn1nc(Nc2ccc(F)c(C)c2)nc1-c1ccnc(C)c1` [Compound E19, (S)-1-[3-(4-Fluoro-3-methyl-phenylamino)-5-(2-methyl-pyridin-4-yl)-[1,2,4]triazol-1-yl]-butan-2-ol], the melting point is 133.85 °C. Further, the 50% effective concentration (EC50) on hα7-wt nAChR [1] is 1950 nM. The PAM_type at hα7-wt nAChR [2] turned out to be 2.
